ChEMBL document CHEMBL2177079, “Free-Wilson and structural approaches to co-optimizing human and rodent isoform potency for 11β-hydroxysteroid dehydrogenase type 1 (11β-HSD1) inhibitors” (J Med Chem, 2012)
One block for each compound: values may come before it. The source made the active and inactive calls. The calls are words filed in the database; no cut-off is given here.

Key:
[1] = Volume of distribution at steady state in female beagle dog at 1 umol/kg, iv; assay type: ADME, organism-based, Canis lupus familiaris; settings: in vivo, read-out: Vdss
[2] = (§1) Oral bioavailability in Han Wistar rat at 7.4 to 14.7 umol/kg; assay type: ADME, organism-based; settings: Han Wistar, in vivo
[3] = Half life in Han Wistar rat at 4.7 umol/kg, iv; assay type: ADME, organism-based; settings: in vivo
[4] = Fraction unbound in Han Wistar rat plasma; assay type: ADME, cell-free
[5] = AUC in mouse at 11.7 umol/kg, po; assay type: ADME, organism-based, Plasma; settings: whole blood
[6] = Volume of distribution at steady state in male beagle dog at 1 umol/kg, iv; assay type: ADME, organism-based, Canis lupus familiaris; settings: in vivo, read-out: Vdss
[7] = Volume of distribution at steady state in mouse at 4.7 umol/kg, iv; assay type: ADME, organism-based; settings: in vivo, read-out: Vdss
[8] = Intrinsic clearance in male beagle dog hepatocytes measured per 10^6 cells; assay type: ADME, cell-based, Canis lupus familiaris, Hepatocyte; settings: read-out: CLH
[9] = AUC in male beagle dog at 1.2 umol/kg, po; assay type: ADME, organism-based, Canis lupus familiaris; settings: plasma
[10] = Fraction unbound in human plasma; assay type: ADME, cell-free
[11] = AUC in Han Wistar rat at 11.7 umol/kg, po; assay type: ADME, organism-based; settings: plasma
[12] = Clearance in female beagle dog at 1 umol/kg, iv; assay type: ADME, organism-based, Canis lupus familiaris; settings: in vivo
[13] = Half life in female beagle dog at 1 umol/kg, iv; assay type: ADME, organism-based, Canis lupus familiaris; settings: in vivo
Rattus norvegicus [14] = assay: Inhibition of 11beta-HSD1 in po dosed Han Wistar rat epididymal adipose tissue assessed as conversion of [3H]cortisone to [3H]cortisol; assay type: functional, organism-based
Mus musculus [15] = assay: Inhibition of 11beta-HSD1 in po dosed C57 mouse epididymal adipose tissue assessed as conversion of [3H]cortisone to [3H]cortisol; assay type: functional, organism-based
[16] = biological target: T1, 11-beta-hydroxysteroid dehydrogenase 1 (Homo sapiens, UniProt P28845); assay: Inhibition of human 11beta-HSD1 by HPLC assay
T1 sequence (P28845 whole entry): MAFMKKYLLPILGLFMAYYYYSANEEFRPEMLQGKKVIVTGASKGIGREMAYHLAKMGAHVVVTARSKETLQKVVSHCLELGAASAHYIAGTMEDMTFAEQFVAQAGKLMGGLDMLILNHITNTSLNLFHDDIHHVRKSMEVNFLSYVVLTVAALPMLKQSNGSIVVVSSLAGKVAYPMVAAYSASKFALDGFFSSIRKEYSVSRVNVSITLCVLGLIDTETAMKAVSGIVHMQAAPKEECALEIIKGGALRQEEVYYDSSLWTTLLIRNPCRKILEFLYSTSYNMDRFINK

[17] = biological target: 11-beta-hydroxysteroid dehydrogenase 1 (Mus musculus, UniProt P50172); assay: Inhibition of mouse 11beta-HSD1 by HTRF assay
Sequence of 11-beta-hydroxysteroid dehydrogenase 1 (Mus musculus, UniProt P50172) (P50172 whole entry): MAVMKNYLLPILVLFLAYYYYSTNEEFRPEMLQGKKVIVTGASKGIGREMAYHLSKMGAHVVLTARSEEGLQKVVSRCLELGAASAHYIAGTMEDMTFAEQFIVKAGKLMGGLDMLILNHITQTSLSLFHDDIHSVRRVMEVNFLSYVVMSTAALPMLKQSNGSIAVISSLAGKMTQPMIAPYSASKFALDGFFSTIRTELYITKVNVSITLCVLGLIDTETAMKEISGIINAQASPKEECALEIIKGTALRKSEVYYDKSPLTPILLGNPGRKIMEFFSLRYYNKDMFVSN

[18] = Lipophilicity, log D at pH 7.4; assay type: physicochemical; settings: buffer
[19] = Clearance in mouse at 4.7 umol/kg, iv; assay type: ADME, organism-based; settings: in vivo
[20] = Oral bioavailability in mouse at 11.7 umol/kg; assay type: ADME, organism-based; settings: in vivo
[21] = Intrinsic clearance in mouse hepatocytes measured per 10^6 cells; assay type: ADME, cell-based, Hepatocyte; settings: read-out: CLH
[22] = Fraction unbound in male beagle dog plasma; assay type: ADME, cell-free, Canis lupus familiaris
[23] = Clearance in male beagle dog at 1 umol/kg, iv; assay type: ADME, organism-based, Canis lupus familiaris; settings: in vivo
[24] = Clearance in Han Wistar rat at 4.7 umol/kg, iv; assay type: ADME, organism-based; settings: in vivo
[25] = Oral bioavailability in male beagle dog at 1.2 umol/kg; assay type: ADME, organism-based, Canis lupus familiaris; settings: in vivo
[26] = biological target: T2, 11-beta-hydroxysteroid dehydrogenase type 2 (Homo sapiens, UniProt P80365); assay: Inhibition of human 11beta-HSD2 by HTRF assay
T2 sequence (P80365 whole entry): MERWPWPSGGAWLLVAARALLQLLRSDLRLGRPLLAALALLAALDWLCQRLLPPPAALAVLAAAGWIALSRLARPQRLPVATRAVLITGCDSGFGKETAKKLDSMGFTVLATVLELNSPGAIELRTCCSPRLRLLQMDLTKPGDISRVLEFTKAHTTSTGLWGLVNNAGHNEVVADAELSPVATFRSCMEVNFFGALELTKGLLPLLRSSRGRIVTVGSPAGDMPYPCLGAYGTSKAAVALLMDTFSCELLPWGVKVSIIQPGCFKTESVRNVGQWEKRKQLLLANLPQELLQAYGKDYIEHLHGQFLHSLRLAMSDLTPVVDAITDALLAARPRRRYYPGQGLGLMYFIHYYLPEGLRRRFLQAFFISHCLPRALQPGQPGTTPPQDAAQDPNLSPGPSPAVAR

[27] = biological target: T3, 17-beta-hydroxysteroid dehydrogenase type 3 (Homo sapiens) (UniProt P37058); assay: Inhibition of human 17beta-HSD3 at 10 uM by HPLC assay
T3 sequence (whole entry): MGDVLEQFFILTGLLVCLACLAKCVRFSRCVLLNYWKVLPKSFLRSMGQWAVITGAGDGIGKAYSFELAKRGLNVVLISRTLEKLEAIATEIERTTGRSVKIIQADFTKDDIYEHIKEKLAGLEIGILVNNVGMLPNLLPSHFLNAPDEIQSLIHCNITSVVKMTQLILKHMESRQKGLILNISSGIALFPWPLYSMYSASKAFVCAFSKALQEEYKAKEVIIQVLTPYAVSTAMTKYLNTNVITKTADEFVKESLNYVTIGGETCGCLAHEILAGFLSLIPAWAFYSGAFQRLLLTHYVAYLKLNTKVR

[28] = Intrinsic clearance in female beagle dog hepatocytes measured per 10^6 cells; assay type: ADME, cell-based, Canis lupus familiaris, Hepatocyte; settings: read-out: CLH
[29] = Intrinsic clearance in human hepatocytes measured per 10^6 cells; assay type: ADME, cell-based, Hepatocyte; settings: read-out: CLH
[30] = Half life in mouse at 4.7 umol/kg, iv; assay type: ADME, organism-based; settings: in vivo
[31] = Fraction unbound in female beagle dog plasma; assay type: ADME, cell-free, Canis lupus familiaris
[32] = Fraction unbound in mouse plasma; assay type: ADME, cell-free
[33] = biological target: T4, 17-beta-hydroxysteroid dehydrogenase type 1 (Homo sapiens, UniProt P14061); assay: Inhibition of human 17beta-HSD1 by HPLC assay
T4 sequence (P14061 whole entry): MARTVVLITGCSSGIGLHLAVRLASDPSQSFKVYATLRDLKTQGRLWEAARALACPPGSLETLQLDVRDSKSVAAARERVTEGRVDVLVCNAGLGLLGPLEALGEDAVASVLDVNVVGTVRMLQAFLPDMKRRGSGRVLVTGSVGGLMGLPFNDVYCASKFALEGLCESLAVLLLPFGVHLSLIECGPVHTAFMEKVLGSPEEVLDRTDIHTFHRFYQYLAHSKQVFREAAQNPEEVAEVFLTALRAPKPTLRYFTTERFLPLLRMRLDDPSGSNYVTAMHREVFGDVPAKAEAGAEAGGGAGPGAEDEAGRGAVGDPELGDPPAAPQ

[34] = AUC in female beagle dog at 1.2 umol/kg, po; assay type: ADME, organism-based, Canis lupus familiaris; settings: plasma
[35] = Volume of distribution at steady state in Han Wistar rat at 4.7 umol/kg, iv; assay type: ADME, organism-based; settings: in vivo, read-out: Vdss
[36] = Intrinsic clearance in Han Wistar rat hepatocytes measured per 10^6 cells; assay type: ADME, cell-based, Hepatocyte; settings: read-out: CLH
[37] = Half life in male beagle dog at 1 umol/kg, iv; assay type: ADME, organism-based, Canis lupus familiaris; settings: in vivo
[38] = biological target: T1, 11-beta-hydroxysteroid dehydrogenase 1; assay: Inhibition of human 11beta-HSD1 by HTRF assay
[39] = Oral bioavailability in female beagle dog at 1.2 umol/kg; assay type: ADME, organism-based, Canis lupus familiaris; settings: in vivo
[40] = Oral bioavailability in Han Wistar rat at 11.7 umol/kg; assay type: ADME, organism-based; settings: in vivo
[41] = Half life in female beagle dog at 0.6 umol/kg, iv; assay type: ADME, organism-based, Canis lupus familiaris; settings: in vivo
[42] = Oral bioavailability in Han Wistar rat at 7 umol/kg; assay type: ADME, organism-based; settings: in vivo
[43] = Volume of distribution at steady state in female beagle dog at 0.6 umol/kg, iv; assay type: ADME, organism-based, Canis lupus familiaris; settings: in vivo, read-out: Vdss
[44] = Volume of distribution at steady state in male beagle dog at 0.6 umol/kg, iv; assay type: ADME, organism-based, Canis lupus familiaris; settings: in vivo, read-out: Vdss
[45] = Half life in male beagle dog at 0.6 umol/kg, iv; assay type: ADME, organism-based, Canis lupus familiaris; settings: in vivo
[46] = Clearance in female beagle dog at 0.6 umol/kg, iv; assay type: ADME, organism-based, Canis lupus familiaris; settings: in vivo
[47] = biological target: Corticosteroid 11-beta-dehydrogenase isozyme 1 (Mus musculus) (UniProt P50172); assay: Inhibition of 11beta-HSD1 in po dosed mouse liver assessed as target engagement; design: scale not given: the % may be the effect or the level left
Mus musculus [48] = assay: Reduction in fasting plasma glucose levels in obese mouse at 50 mg/kg/day, po; assay type: functional, organism-based
Mus musculus [49] = assay: Reduction in body weight in obese mouse at 300 mg/kg/day, po; assay type: functional, organism-based
[50] = Clearance in male beagle dog at 0.6 umol/kg, iv; assay type: ADME, organism-based, Canis lupus familiaris; settings: in vivo
Mus musculus [51] = assay: Reduction in body weight in obese mouse at 50 mg/kg/day, po; assay type: functional, organism-based
Mus musculus [52] = assay: Reduction in fasting plasma glucose levels in obese mouse at 300 mg/kg/day, po; assay type: functional, organism-based
[53] = AUC in Han Wistar rat at 7 umol/kg, po; assay type: ADME, organism-based, Plasma; settings: whole blood
Rattus norvegicus [54] = assay: as §1; assay type: ADME, organism-based; settings: in vivo

- Vd [1]: 1.6 L/kg
- bioavailability [2]: 100%
- half-life [3]: 36 min
- fraction unbound [4]: 0.55
- AUC [5]: 2.7 µM·h
- Vd [6]: 1.1 L/kg
- Vd [7]: 1.1 L/kg
- hepatocyte CLint [8]: < 2 µL/min/1e6 cells
- AUC [9]: 0.38 µM·h
- fraction unbound [10]: 0.52
- AUC [11]: 10.4 µM·h
- clearance [12]: 29 mL/min/kg
- half-life [13]: 42 min
- IC50 (Rattus norvegicus [14]): 87 nM
- IC50 (Mus musculus [15]): 30 nM
- IC50 [16]: 14 nM
- IC50 [17]: 27 nM
- logD [18]: 2.1
- clearance [19]: 42 mL/min/kg
- bioavailability [20]: 57%
- hepatocyte CLint [21]: 3.6 µL/min/1e6 cells
- fraction unbound [22]: > 0.66
- clearance [23]: 19 mL/min/kg
- clearance [24]: 32 mL/min/kg
- bioavailability [25]: 34%
- IC50 [26]: > 30000 nM
- inhibition [27]: 4%
- hepatocyte CLint [28]: < 2 µL/min/1e6 cells
- hepatocyte CLint [29]: < 2 µL/min/1e6 cells
- half-life [30]: 24 min
- fraction unbound [31]: > 0.66
- fraction unbound [32]: > 0.5
- IC50 [33]: > 35000 nM
- AUC [34]: 0.16 µM·h
- Vd [35]: 0.9 L/kg
- hepatocyte CLint [36]: < 2 µL/min/1e6 cells
- half-life [37]: 48 min
- IC50 [38]: 28 nM
- bioavailability [39]: 23%
- bioavailability [40]: 100%
Compound: O=C(N[C@H]1C2CC3CC1C[C@](O)(C3)C2)c1cnc(NC2CCOCC2)nc1C1CCC1

- half-life [41]: 36 min
- bioavailability [42]: 61%
- bioavailability [2]: 61%
- half-life [3]: 144 min
- fraction unbound [4]: 0.35
- Vd [43]: 0.6 L/kg
- AUC [5]: 1.5 µM·h
- Vd [7]: 2.4 L/kg
- Vd [44]: 0.7 L/kg
- hepatocyte CLint [8]: 6.7 µL/min/1e6 cells
- AUC [9]: 0.19 µM·h
- half-life [45]: 36 min
- clearance [46]: 14 mL/min/kg
- fraction unbound [10]: 0.38
- IC50 (Mus musculus [15]): 50 nM
- IC50 [16]: 1.6 nM
- IC50 [17]: 32 nM
- logD [18]: 2.4
- clearance [50]: 17 mL/min/kg
- clearance [19]: 57 mL/min/kg
- bioavailability [20]: 34%
- hepatocyte CLint [21]: 9.1 µL/min/1e6 cells
- fraction unbound [22]: 0.38
- clearance [24]: 9 mL/min/kg
- bioavailability [25]: 15%
- IC50 [26]: > 30000 nM
- inhibition [27]: 7%
- hepatocyte CLint [28]: 6.7 µL/min/1e6 cells
- hepatocyte CLint [29]: < 2 µL/min/1e6 cells
- half-life [30]: 42 min
- fraction unbound [31]: 0.38
- fraction unbound [32]: 0.3
- IC50 [33]: > 100000 nM
- AUC [34]: 0.42 µM·h
- AUC [53]: 5.6 µM·h
- Vd [35]: 1 L/kg
- hepatocyte CLint [36]: < 2 µL/min/1e6 cells
- IC50 [38]: 21 nM
- bioavailability [39]: 30%
Compound: O=C(N[C@H]1C2CC3CC1C[C@](O)(C3)C2)c1cnc(N[C@H]2CCOC2)nc1C1CCCC1
- Activity [47]: >90%
- Activity (Mus musculus [48]): inactive
- Activity (Mus musculus [49]): Active
- Activity (Mus musculus [51]): Active
- Activity (Mus musculus [52]): Active

- F (Rattus norvegicus [54]): 161%
- IC50 [17]: 20 nM
- logD [18]: 3.1
Compound: CC(C)(CO)Nc1ncc(C(=O)N[C@H]2C3CC4CC2C[C@](O)(C4)C3)c(OC2CCC2)n1
